Several values for one entry are separate records, joined by “and”; a condition that tells them apart may be missing. Equal entries are not always repeated.
Columns and labels:
PC3 cells = assay: SRB cell viability assay, docetaxel-sensitive PC3 cells; type: cell-based; conditions: Homo sapiens, PC-3; read-out: IC50 of drug when cells treated with drug only
Protocol: The chemotherapeutic drugs that were tested for chemosensitization in combination with LTG-E were docetaxel, daunorubicin, Herceptin®, and lapatinib. […] Table 17 also contains the serially-diluted concentrations of drugs that each cell line was tested against.

K562/Dox cells = assay: SRB cell viability assay, daunorubicin-resistant K562/Dox cells; type: cell-based, human; conditions: 72 h, background = 0.043

## CC(=O)O[C@@]12CO[C@@H]1C[C@H](O)[C@@]1(C)C(=O)[C@H](O)C3=C(C)[C@@H](OC(=O)[C@H](O)[C@@H](NC(=O)OC(C)(C)C)c4ccccc4)C[C@@](O)([C@@H](OC(=O)c4ccccc4)[C@H]21)C3(C)C [Docetaxel, docetaxel]
PC3 cells
  IC50: 1.8 nM and 0.00145 µg/mL
K562/Dox cells; Docetaxel 0.001 nM (so in the source), no LGT-E pre-treatment
  mean A at 565 nm: 2.771
K562/Dox cells; Docetaxel 0.001 nM (so in the source), pre-treated with 25 μg/ml LGT-E
  mean A at 565 nm: 2.747
K562/Dox cells; Docetaxel 0.1 nM (so in the source), no LGT-E pre-treatment
  mean A at 565 nm: 2.933
K562/Dox cells; Docetaxel 0.1 nM (so in the source), pre-treated with 25 μg/ml LGT-E
  mean A at 565 nm: 2.848
K562/Dox cells; Docetaxel 0.333 nM (so in the source), no LGT-E pre-treatment
  mean A at 565 nm: 2.960
K562/Dox cells; Docetaxel 0.333 nM (so in the source), pre-treated with 25 μg/ml LGT-E
  mean A at 565 nm: 2.811
K562/Dox cells; Docetaxel 1 nM (so in the source), no LGT-E pre-treatment
  mean A at 565 nm: 2.509
K562/Dox cells; Docetaxel 1 nM (so in the source), pre-treated with 25 μg/ml LGT-E
  mean A at 565 nm: 2.706
K562/Dox cells; Docetaxel 3.33 nM (so in the source), no LGT-E pre-treatment
  mean A at 565 nm: 2.848
K562/Dox cells; Docetaxel 3.33 nM (so in the source), pre-treated with 25 μg/ml LGT-E
  mean A at 565 nm: 2.300
K562/Dox cells; Docetaxel 10 nM (so in the source), no LGT-E pre-treatment
  mean A at 565 nm: 2.716
K562/Dox cells; Docetaxel 10 nM (so in the source), pre-treated with 25 μg/ml LGT-E
  mean A at 565 nm: 1.259
K562/Dox cells; Docetaxel 33.3 nM (so in the source), pre-treated with 25 μg/ml LGT-E
  mean A at 565 nm: 1.175
K562/Dox cells; Docetaxel 100 nM (so in the source), no LGT-E pre-treatment
  mean A at 565 nm: 0.723
K562/Dox cells; Docetaxel 100 nM (so in the source), pre-treated with 25 μg/ml LGT-E
  mean A at 565 nm: 0.510
